In patent US8207216B2, “Benzofuran-3-yl(indol-3-yl) maleimides as potent GSK3 inhibitors” (The Board of Trustees of the University of Illinois, priority 2006, dated 2012):

Key:
SKOV3 = assay: Antiproliferation assay, ovarian cancer cells; assay type: cell-based; details: Homo sapiens, SK-OV-3; ovarian cancer cell proliferation
Protocol: (§1) The pancreatic cancer cell lines BxPc-3, HupT3, MiaPaCa-2, Panc 04.03, and SU86.86 were obtained from ATCC (Rockville, Md.) and were grown in medium (DMEM or RPMI) containing 10% fetal calf serum and L-glutamine. Pancreatic cancer cells were plated out in duplicate into 6-wells of a 96-well microtiter plate at 2.5−4×10^3 cells per well. Four-hours post plating, individual wells were treated with diluent (DMSO) or varying concentrations of commercial compounds, AR-A014418 and SB216763, or the indicated GSK inhibitors of this invention from a concentration of 1 nM to 50 microM. […] The IC50s were calculated using XLfit (IDBS Limited, Guildford, UK).
(§2) Similar antiproliferation assays were performed using ovarian cancer cells. Compound 40 is of particular interest for inhibition of ovarian cancer cell proliferation.

OVCA432 = assay: Antiproliferation assay, ovarian cancer cells; assay type: cell-based; details: ovarian cancer cell proliferation
Protocol: as §1, §2

CDK-4/cyclinD1 = CDK-4/cyclinD1 (Homo sapiens, UniProt P11802); assay: CDK panel (Reaction Biology); assay type: biochemical; details: tested at Reaction Biology, Inc.
Sequence of CDK-4/cyclinD1 (P11802 whole entry, species assumed): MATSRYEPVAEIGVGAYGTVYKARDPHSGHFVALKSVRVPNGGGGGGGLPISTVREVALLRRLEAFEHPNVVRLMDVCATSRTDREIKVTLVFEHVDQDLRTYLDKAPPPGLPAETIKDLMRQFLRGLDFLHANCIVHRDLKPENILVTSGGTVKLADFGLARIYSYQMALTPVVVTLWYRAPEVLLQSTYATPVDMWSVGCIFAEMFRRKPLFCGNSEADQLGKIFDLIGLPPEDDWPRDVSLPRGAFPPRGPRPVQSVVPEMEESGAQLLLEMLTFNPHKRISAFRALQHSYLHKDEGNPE
Sequence of CDK-4/cyclinD1 (P24385 whole entry partner, species assumed): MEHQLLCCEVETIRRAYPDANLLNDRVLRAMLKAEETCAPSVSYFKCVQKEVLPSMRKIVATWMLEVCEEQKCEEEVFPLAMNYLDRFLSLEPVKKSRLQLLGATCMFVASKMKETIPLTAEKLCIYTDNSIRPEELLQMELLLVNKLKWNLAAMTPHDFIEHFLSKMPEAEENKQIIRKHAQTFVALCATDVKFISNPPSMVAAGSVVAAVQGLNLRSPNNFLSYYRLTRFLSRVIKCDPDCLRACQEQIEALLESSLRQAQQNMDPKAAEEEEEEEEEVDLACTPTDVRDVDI

CDK-2/cyclinE = CDK-2/cyclinE (Homo sapiens, UniProt P24941); assay: CDK-2/CyclinE inhibition (Reaction Biology); assay type: biochemical; details: tested at Reaction Biology, Inc.
CDK-1/cyclinB = CDK-1/cyclinB (Homo sapiens, UniProt P06493); assay: CDK panel (Reaction Biology); assay type: biochemical; details: tested at Reaction Biology, Inc.
CDK-3/cyclinE = CDK-3/cyclinE (Homo sapiens, UniProt Q00526); assay: biochemical
CDK-5/P25 = CDK-5/P25 (Homo sapiens, UniProt Q00535); assay: CDK panel (Reaction Biology); assay type: biochemical; details: tested at Reaction Biology, Inc.
Sequence of CDK-5/P25 (Q00535 whole entry, species assumed): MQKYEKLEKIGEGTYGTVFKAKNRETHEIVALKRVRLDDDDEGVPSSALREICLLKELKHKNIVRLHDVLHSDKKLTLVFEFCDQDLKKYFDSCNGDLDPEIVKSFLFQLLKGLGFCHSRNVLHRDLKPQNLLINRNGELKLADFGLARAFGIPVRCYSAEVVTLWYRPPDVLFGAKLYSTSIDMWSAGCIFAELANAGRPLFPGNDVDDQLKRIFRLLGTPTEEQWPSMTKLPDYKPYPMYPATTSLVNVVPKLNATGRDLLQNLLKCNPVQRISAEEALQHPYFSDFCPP
Sequence of CDK-5/P25 (Q15078 99-307 partner limits assumed, species assumed): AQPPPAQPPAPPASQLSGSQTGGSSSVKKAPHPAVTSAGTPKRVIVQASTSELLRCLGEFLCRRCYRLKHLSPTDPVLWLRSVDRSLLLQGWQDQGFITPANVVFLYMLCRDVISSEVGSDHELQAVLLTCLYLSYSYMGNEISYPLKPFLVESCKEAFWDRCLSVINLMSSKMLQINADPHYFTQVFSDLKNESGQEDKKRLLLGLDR

[1] = biological target: T1, recombinant human His6-GSK-3β (Homo sapiens, UniProt P49841); assay: GSK-3β kinase assay, [γ32P] transfer to primed glycogen synthase peptide; assay type: biochemical; details: 10 μM ATP; 10 μM pGSM peptide; 30 minutes at 30° C.; read-out: IC50 (nM), GSK-3β inhibition;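 further: phosphate incorporation quantified by liquid scintillation counting of the filters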
T1 construct: His6; purchased EMD Biosciences

CDK-6/cyclinD3 = CDK-6/cyclinD3 (Homo sapiens, UniProt Q00534); assay: CDK panel (Reaction Biology); assay type: biochemical; details: tested at Reaction Biology, Inc.
CDK-9/cyclinT1 = CDK-9/cyclinT1 (Homo sapiens, UniProt P50750); assay: CDK panel (Reaction Biology); assay type: biochemical; details: tested at Reaction Biology, Inc.
[2] = test system: M-17 cancer cells co-transfected with α-Syn and DAT; assay: Neuroprotection against MPP+-mediated cell death, MTT assay; assay type: cell-based; details: MPP+ 48 h, inhibitor 0.1-10,000 nM
Source text: GSK-3β inhibitors are examined for their capacity to interfere with two of the regulated processes playing an important role in the MPP+-induced model (MPP+ is N-methyl-4-phenylpyridinium) of neurodegeneration: Tau phosphorylation at the PHF-1 binding site (PHF-Tau; epitope which belongs to AD-like Tau antigenicity) and α-Syn-induced toxicity. Compounds are screened in in vitro assays, where their neuroprotective effects to protect against MPP+-mediated cell death was estimated. The cell assays are conducted as follows: M-17 cancer cells are co-transfected with α-Syn and DAT at a 3:1 DNA mimicking that found in Substantia nigra ratio, as we have described previously (Wersinger, C., et al The FASEB journal 2003, 17, 2151-2153). Cells are treated with MPP^+ for 48 h in the absence and presence of increasing amounts of GSK-3β inhibitors [0.1-10,000 nM], and cell death was measured by MTT (Thiazolyl Blue Tetrazolium Bromide) assays. Under these conditions, MPP^+ caused ˜80% cell death.

CDK-2/cyclinA = CDK-2/cyclinA (Homo sapiens, UniProt P24941); assay: CDK panel (Reaction Biology); assay type: biochemical; details: tested at Reaction Biology, Inc.
CDK-5/P35 = CDK-5/P35 (Homo sapiens, UniProt Q00535); assay: CDK panel (Reaction Biology); assay type: biochemical; details: tested at Reaction Biology, Inc.
FAK = FAK (Homo sapiens, UniProt Q05397); assay: Kinase panel (Novartis); assay type: biochemical
JAK-2 = JAK-2 (Homo sapiens, UniProt O60674); assay: Kinase panel (Novartis); assay type: biochemical
KDR = KDR (Homo sapiens, UniProt P35968); assay: Kinase panel (Novartis); assay type: biochemical
C57BL/6J mice = assay: Amphetamine/chlordiazepoxide hyperactivity model of mania, open field locomotor activity; assay type: in vivo; details: 5-ING-135 50 mg/kg, 5 min pretreatment; amphetamine 4 mg/kg + chlordiazepoxide 2.5 mg/kg; 60 min
Protocol: Hyperactivity models are often used to mimic the mania associated with bipolar disorder.
Certain benzofuran-based ligands of this invention were studied in a novel mouse model of mania that has recently been validated with several clinically effective mood stabilizers. […] Mice were then injected with amphetamine (4 mg/kg) or amphetamine (4 mg/kg) and chlordiazepoxide (2.5 mg/kg) and locomotor activity was monitored for 60 min. The open field is a square box surrounded by an array of infra-red beams and their behavior is automatically recorded for 60 minutes in the open field test chamber (10.75″×10.75″×8″H with infra-red (I/R) array, model ENV 510, MED Associates). After this period the animals were returned to their home cages and then to the main colony.
Control treatments are as indicated. FIG. 1B illustrates similar locomotion activity data of treated mice measured in cm over 5 minute intervals for 60 minutes.

PKCα = PKCα (Homo sapiens, UniProt P17252); assay: Kinase panel (Novartis); assay type: biochemical
c-src = c-src (Homo sapiens, UniProt P12931); assay: Kinase panel (Novartis); assay type: biochemical
FGFR-3-K650E = FGFR-3-K650E (Homo sapiens, UniProt P22607, K650E); assay: Kinase panel (Novartis); assay type: biochemical
HER-1 = HER-1 (Homo sapiens, UniProt P00533); assay: Kinase panel (Novartis); assay type: biochemical
HupT3 = assay: Antiproliferation MTS assay, pancreatic cancer cells; assay type: cell-based; details: Homo sapiens, HuP-T3, as reported in Gaisina et al. (2009) J. Med. Chem. 52(7), 1853-1863
c-Abl-T3151 = c-Abl-T3151 (Homo sapiens, UniProt P00519, T315I); assay: Kinase panel (Novartis); assay type: biochemical
c-Abl = c-Abl (Homo sapiens, UniProt P00519); assay: Kinase panel (Novartis); assay type: biochemical
IGF-1R = IGF-1R (Homo sapiens, UniProt P08069); assay: Kinase panel (Novartis); assay type: biochemical
Sequence of IGF-1R (P08069 31-1367, species assumed): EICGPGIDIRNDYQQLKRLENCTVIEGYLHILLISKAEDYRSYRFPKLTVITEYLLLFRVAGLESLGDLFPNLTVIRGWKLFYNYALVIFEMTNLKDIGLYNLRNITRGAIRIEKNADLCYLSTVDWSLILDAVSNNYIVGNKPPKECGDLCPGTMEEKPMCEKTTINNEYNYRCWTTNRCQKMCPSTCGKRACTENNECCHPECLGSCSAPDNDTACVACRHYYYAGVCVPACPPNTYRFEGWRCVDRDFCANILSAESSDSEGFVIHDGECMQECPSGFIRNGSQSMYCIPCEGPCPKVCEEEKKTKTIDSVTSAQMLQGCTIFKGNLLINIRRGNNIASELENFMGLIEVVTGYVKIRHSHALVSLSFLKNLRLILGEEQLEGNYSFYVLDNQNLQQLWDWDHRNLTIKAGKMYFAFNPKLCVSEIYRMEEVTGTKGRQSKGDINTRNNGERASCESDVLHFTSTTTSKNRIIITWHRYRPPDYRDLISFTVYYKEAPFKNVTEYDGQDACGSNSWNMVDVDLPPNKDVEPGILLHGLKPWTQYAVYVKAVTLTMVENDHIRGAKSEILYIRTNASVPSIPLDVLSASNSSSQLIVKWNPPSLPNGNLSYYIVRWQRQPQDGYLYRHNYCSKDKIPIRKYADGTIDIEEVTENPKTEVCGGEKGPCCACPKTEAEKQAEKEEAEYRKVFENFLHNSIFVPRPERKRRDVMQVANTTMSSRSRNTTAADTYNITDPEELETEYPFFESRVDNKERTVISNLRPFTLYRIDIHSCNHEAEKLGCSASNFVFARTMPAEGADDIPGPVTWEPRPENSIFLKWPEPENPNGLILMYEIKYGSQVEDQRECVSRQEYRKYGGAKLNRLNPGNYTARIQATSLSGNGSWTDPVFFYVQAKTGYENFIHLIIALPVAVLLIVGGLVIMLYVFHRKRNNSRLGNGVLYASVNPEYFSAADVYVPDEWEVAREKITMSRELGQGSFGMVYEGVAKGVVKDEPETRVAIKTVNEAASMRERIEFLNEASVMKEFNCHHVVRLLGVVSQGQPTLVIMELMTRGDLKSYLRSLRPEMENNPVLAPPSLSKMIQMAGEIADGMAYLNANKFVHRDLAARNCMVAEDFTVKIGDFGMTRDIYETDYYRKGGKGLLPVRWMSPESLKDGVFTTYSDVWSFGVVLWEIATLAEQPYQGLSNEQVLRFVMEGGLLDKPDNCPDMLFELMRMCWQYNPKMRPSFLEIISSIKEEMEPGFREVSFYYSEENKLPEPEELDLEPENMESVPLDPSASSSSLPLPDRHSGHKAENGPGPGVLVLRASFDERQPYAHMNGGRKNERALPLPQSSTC

b-Raf-V599E = b-Raf-V599E (Homo sapiens, UniProt P15056, V600E); assay: Kinase panel (Novartis); assay type: biochemical
Sequence of b-Raf-V599E (P15056 whole entry V600E): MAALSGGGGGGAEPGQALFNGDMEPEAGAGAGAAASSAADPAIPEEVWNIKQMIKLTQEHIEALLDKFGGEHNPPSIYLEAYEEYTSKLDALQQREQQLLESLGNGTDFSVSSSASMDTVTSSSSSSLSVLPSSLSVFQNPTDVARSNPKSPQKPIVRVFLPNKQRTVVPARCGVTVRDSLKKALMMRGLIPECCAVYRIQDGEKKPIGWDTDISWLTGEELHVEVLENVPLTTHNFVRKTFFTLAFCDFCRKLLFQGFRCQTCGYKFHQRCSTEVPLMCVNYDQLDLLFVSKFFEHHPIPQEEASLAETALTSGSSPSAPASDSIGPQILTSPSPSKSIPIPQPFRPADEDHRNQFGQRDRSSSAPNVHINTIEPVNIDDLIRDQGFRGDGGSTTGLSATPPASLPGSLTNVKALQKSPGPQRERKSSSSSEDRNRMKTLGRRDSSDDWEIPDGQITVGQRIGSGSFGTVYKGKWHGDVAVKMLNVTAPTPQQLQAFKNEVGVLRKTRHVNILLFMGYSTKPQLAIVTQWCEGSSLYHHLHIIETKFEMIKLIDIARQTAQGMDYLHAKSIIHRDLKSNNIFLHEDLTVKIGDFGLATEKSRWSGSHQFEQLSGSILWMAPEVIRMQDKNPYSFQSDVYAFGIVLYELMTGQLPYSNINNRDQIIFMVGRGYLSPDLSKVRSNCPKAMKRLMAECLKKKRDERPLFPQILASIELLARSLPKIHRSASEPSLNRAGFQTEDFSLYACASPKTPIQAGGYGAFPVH

JNK1 = JNK1 (Homo sapiens, UniProt P45983); assay: Kinase panel (Novartis); assay type: biochemical
Tek = Tek (Homo sapiens, UniProt Q02763); assay: Kinase panel (Novartis); assay type: biochemical
c-Met = c-Met (Homo sapiens, UniProt P08581); assay: Kinase panel (Novartis); assay type: biochemical
[3] = Passage of the brain-blood barrier in animal models; assay type: in vivo; details: as assessed in animal models
Flt-3 = Flt-3 (Homo sapiens, UniProt P36888); assay: Kinase panel (Novartis); assay type: biochemical
MIAPaCa-2 = assay: Antiproliferation MTS assay, pancreatic cancer cells; assay type: cell-based; details: Homo sapiens
CDK2/A = CDK2/A (Homo sapiens, UniProt P24941); assay: Kinase panel (Novartis); assay type: biochemical
Axl = Axl (Homo sapiens, UniProt P30530); assay: Kinase panel (Novartis); assay type: biochemical
Sequence of Axl (P30530 26-894, species assumed): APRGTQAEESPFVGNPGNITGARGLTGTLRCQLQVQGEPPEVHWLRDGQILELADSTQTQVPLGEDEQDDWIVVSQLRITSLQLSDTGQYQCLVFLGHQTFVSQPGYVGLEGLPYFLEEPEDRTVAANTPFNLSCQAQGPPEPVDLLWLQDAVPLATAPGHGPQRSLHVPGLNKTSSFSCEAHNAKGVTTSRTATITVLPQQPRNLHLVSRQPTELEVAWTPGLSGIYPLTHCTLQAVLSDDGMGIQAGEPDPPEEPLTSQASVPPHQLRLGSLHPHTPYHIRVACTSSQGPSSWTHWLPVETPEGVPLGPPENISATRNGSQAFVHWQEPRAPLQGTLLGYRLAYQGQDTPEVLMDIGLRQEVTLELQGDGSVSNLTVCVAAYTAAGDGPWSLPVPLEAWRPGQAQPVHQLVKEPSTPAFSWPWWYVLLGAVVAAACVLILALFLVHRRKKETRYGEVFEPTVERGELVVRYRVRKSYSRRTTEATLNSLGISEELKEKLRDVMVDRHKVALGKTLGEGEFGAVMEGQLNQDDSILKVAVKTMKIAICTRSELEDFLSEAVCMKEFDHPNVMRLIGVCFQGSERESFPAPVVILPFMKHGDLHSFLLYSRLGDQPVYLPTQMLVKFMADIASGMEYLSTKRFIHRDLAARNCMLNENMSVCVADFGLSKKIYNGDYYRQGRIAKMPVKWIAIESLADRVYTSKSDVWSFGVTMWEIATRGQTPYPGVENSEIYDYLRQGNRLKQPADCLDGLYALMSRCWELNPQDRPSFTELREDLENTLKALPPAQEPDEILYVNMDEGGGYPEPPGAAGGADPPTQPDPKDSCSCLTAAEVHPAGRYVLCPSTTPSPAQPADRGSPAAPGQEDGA

Ret = Ret (Homo sapiens, UniProt P07949); assay: Kinase panel (Novartis); assay type: biochemical
EphB4 = EphB4 (Homo sapiens, UniProt P54760); assay: Kinase panel (Novartis); assay type: biochemical
Sequence of EphB4 (P54760 16-987, species assumed): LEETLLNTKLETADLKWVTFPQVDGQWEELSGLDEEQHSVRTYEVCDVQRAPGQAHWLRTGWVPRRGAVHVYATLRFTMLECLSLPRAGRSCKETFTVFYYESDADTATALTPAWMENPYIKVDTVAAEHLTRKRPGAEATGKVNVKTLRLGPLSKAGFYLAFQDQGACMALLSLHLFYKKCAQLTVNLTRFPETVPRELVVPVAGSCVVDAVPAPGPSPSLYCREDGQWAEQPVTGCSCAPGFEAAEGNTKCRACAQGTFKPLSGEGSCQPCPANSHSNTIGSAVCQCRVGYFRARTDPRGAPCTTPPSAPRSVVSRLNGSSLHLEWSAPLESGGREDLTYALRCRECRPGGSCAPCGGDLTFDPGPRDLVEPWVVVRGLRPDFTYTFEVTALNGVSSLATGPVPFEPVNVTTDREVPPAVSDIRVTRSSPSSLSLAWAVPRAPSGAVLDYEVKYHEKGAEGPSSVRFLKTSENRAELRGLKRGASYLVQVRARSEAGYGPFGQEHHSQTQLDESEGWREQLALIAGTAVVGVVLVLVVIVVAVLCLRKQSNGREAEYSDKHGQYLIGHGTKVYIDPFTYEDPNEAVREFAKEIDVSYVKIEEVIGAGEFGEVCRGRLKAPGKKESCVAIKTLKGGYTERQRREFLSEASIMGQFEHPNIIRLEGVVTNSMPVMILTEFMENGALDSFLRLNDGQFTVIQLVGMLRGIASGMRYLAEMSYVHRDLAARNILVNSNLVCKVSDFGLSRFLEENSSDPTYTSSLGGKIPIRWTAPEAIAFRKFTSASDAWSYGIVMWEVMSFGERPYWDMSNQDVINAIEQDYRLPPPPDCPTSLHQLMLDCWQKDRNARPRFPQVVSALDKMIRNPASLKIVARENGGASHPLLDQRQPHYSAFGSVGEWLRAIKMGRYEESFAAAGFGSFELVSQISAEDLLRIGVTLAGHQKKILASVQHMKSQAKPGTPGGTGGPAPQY

PDK1 = biological target: T2, PDK1 (Homo sapiens, UniProt O15530); assay: Kinase panel (Novartis); assay type: biochemical
T2 sequence (O15530 1-556): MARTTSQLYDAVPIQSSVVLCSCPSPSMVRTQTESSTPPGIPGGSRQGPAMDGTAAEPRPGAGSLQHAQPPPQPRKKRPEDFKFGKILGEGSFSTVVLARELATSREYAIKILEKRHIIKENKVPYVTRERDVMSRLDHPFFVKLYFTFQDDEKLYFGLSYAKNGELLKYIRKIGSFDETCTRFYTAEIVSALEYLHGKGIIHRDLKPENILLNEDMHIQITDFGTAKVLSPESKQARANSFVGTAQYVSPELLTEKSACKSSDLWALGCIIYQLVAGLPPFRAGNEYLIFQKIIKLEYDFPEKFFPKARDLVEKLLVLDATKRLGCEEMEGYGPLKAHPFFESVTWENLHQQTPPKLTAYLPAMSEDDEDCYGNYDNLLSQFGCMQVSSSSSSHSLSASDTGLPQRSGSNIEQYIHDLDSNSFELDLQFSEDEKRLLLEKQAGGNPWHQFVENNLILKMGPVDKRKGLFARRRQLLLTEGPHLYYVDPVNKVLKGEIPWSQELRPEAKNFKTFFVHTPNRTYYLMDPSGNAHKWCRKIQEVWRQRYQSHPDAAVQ

COc1cccc2c(C3=C(c4cn(C)c5cc(Cl)c(F)cc45)C(=O)NC3=O)coc12 [Compound 15, 3-(6-Chloro-5-fluoro-1-methyl-1H-indol-3-yl)-4-(7-methoxy-benzofuran-3-yl)-pyrrole-2,5-dione] gave an IC50 (SKOV3) of 42.7 µM, an IC50 (OVCA432) of 10.7 µM and an IC50 (CDK-4/cyclinD1) of 59.5 µM. The IC50 (CDK-2/cyclinE) was 99000 nM, the IC50 (CDK-1/cyclinB) was 46.2 µM and the IC50 (CDK-3/cyclinE) was greater than 100 µM. It also gave an IC50 (CDK-5/P25) of 108 µM, an IC50 [1] of 260 ± 32 nM and an IC50 (CDK-6/cyclinD3) of 165 µM. The IC50 (CDK-9/cyclinT1) was greater than 100 µM, the “Neuroprotection against MPP+ (percent cell recovery, FIG. 2)” value [2] was “neuroprotection of the cells” and the IC50 (CDK-2/cyclinA) was 27.2 µM. The IC50 (CDK-5/P35) was 61.6 µM.

Compound Cn1cc(C2=C(c3coc4ccccc34)C(=O)NC2=O)c2cc(Br)ccc21 [Compound 19, 3-Benzofuran-3-yl-4-(5-bromo-1-methyl-1H-indol-3-yl)-pyrrole-2,5-dione] has an IC50 (FAK) greater than 10 µM, an IC50 (JAK-2) greater than 10 µM and an IC50 (KDR) greater than 10 µM. For the same compound, the “Inhibition of hyperactivity produced by amphetamine/chlordiazepoxide (locomotor activity)” value (C57BL/6J mice) was “inhibited the hyperactivity”, the IC50 (PKCα) was 61.4 µM and the IC50 (c-src) was greater than 10 µM. It also gave an IC50 (SKOV3) of 74.5 µM, an IC50 (OVCA432) of 33.6 µM and an IC50 (FGFR-3-K650E) greater than 10 µM. It also gave an IC50 (HER-1) greater than 10 µM, an IC50 (HupT3) of 43 ± 6.3 µM and an IC50 (c-Abl-T3151) greater than 10 µM. The IC50 (c-Abl) was greater than 10 µM, the IC50 (IGF-1R) was greater than 10 µM and the IC50 (b-Raf-V599E) was greater than 10 µM. It also gave an IC50 (JNK1) greater than 10 µM, an IC50 (Tek) greater than 10 µM and an IC50 (c-Met) greater than 10 µM. For the same compound, the “Ability to pass the brain-blood barrier” value [3] was “ability to pass the brain-blood barrier”, the IC50 (Flt-3) was greater than 10 µM and the IC50 (MIAPaCa-2; MIA PaCa-2, as reported in Gaisina et al. (2009) J. Med. Chem. 52(7), 1853-1863) was 30 ± 2.2 µM. For the same compound, the IC50 (MIAPaCa-2; MIA PaCa-2, 72 hrs, MTS) was 30 µM, the IC50 (CDK2/A) was 3.98 µM and the Ki (CDK2/A) was 189 nM. The IC50 (Axl) was greater than 10 µM, the IC50 (Ret) was greater than 10 µM and the IC50 (EphB4) was greater than 10 µM. For the same compound, the IC50 (PDK1) was greater than 10 µM.
